Measurements from patent US20140187784A1, “RADIOACTIVE QUINOLINONE DERIVATIVE AND PHARMACEUTICAL DRUG COMPRISING THE SAME” (Nihon Medi-Physics Co., Ltd., priority 2012, published 2014).
pIC50: −log10 of the molar value.

Assays:
human CYP11B1 = biological target: T1, human CYP11B1 (Homo sapiens, UniProt P15538); test: Inhibition of cortisol production in V79-B1 cells expressing human CYP11B1 (ELISA); format: cell-based; settings: 11-deoxycortisol 100 nmol/L, 1 hour, unlabeled form, read-out: IC50 against cortisol production
T1 construct: expressed in transfected cells; host or cells: Chinese hamster lung-derived fibroblast V79 cells (V79-B1)
T1 sequence (P15538 25-503): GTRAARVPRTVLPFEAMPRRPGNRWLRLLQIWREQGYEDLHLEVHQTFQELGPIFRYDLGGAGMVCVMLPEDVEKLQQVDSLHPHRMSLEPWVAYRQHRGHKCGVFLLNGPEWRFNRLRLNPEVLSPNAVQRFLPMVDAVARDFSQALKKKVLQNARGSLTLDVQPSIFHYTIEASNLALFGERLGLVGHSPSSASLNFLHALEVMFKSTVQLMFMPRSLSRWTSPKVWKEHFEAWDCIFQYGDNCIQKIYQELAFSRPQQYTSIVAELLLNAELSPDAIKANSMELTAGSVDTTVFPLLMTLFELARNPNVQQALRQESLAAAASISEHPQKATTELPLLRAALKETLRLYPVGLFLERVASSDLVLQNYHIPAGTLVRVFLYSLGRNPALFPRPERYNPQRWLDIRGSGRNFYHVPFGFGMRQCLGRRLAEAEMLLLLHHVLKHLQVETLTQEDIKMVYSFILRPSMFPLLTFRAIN
Description: (§1) Chinese hamster lung-derived fibroblast V79 cells (obtained from European Collection of Cell Cultures (ECACC) via DS Pharma Biomedical Co., Ltd.) were allowed to express human CYP11B2 and human CYP11B1 to prepare V79-B2 and V79-B1, respectively. V79-B2 or V79-B1 was inoculated to a microplate and cultured overnight. Then, corticosterone and 11-deoxycortisol were added at final concentrations of 100 nmol/L into the culture supernatants of V79-B2 and V79-B1, respectively. At the same time, iodometomidate (IMTO) or the unlabeled form of PAY15, PAY21, PAY27, or PAY54 synthesized in Example 2, 5, 8, or 12 was added at a final concentration of 10^−4 to 10^3 nmol/L into the culture supernatants. One hour later, the culture supernatant of V79-B1 was recovered, and the concentration of cortisol, which is a metabolite of CYP11B1, was measured by enzyme-linked immunosorbent assay (ELISA). Four hours later, the culture supernatant of V79-B2 was recovered, and the concentration of aldosterone, which is a metabolite of CYP11B2, was measured by ELISA. […] IC50 against cortisol production/IC50 against aldosterone production was calculated and used as a selectivity factor for CYP11B2.

CYP11B2 = biological target: T2, CYP11B2 (Homo sapiens, UniProt P19099); test: Inhibition of aldosterone production in V79-B2 cells expressing human CYP11B2 (ELISA); format: cell-based; set-up: expressed in transfected cells; host or cells: Chinese hamster lung-derived fibroblast V79 cells (V79-B2)
T2 sequence (P19099 25-503): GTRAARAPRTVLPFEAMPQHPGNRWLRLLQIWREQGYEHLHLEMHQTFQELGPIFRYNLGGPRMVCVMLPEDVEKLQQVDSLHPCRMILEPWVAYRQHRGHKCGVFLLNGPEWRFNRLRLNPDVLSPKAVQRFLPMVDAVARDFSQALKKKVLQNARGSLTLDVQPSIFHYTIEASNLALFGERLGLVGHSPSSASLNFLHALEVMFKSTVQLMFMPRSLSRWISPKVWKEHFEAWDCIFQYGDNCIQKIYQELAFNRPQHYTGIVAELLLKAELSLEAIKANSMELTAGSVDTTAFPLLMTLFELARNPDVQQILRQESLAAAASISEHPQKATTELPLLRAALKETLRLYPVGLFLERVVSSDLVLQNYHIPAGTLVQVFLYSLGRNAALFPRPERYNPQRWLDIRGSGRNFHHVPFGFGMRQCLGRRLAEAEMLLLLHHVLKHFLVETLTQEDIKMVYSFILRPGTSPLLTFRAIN
Description: as §1

[1] = Pharmacokinetic and distribution experiment (radioactivity in blood and excised organs after tail vein injection); format: in vivo; settings: ddy mice; for Adrenal gland/Blood ratio / Adrenal gland/Kidney ratio / Adrenal gland/Liver ratio / Radioactivity Distribution, Adrenal gland / Radioactivity Distribution, Blood / Radioactivity Distribution, Heart / Radioactivity Distribution, Kidney / Radioactivity Distribution, Large intestine / Radioactivity Distribution, Liver / Radioactivity Distribution, Lung / Radioactivity Distribution, Pancreas / Radioactivity Distribution, Small intestine / Radioactivity Distribution, Spleen / Radioactivity Distribution, Stomach / Radioactivity Distribution, Thyroid: tail vein injection, 18.5 kBq (0.5 μCi)
Description: (§2) The HPLC fraction of [^125I]PAY15 obtained in Example 3 was concentrated and then diluted with saline. The resulting solution was used in administration. 100 μL of the solution (18.5 kBq (0.5 μCi)) was injected to the tail vein of each of five ddy mice (6 weeks old). Five minutes later, each mouse was decapitated, and blood was collected. Then, organs (adrenal gland, pancreas, heart, lung, stomach, small intestine, large intestine, liver, spleen, kidney, and thyroid gland) were excised. After measurement of their weights, the radioactivities of blood and each excised organ were measured. Also, the point in time when each mouse was decapitated was changed to 5, 15, 30, 60, and 120 minutes later to perform similar operation.
The HPLC fraction of [^125I]PAY21 obtained in Example 6 was concentrated and then diluted with saline. The resulting solution was used in administration to perform the same operation as in Evaluation 1.
as §2, with “[^18F]PAY27 obtained” for “The HPLC fraction of [^125I]PAY15 obtained”, “Example 10” for “Example 3”, “was” for “was concentrated and then”, “solution (14.8” for “solution (18.5”, “kBq (4” for “kBq (0.5”, “and thigh bone)” for “and thyroid gland)”
as §2, with “[^18F]PAY54 obtained” for “The HPLC fraction of [^125I]PAY15 obtained”, “Example 13” for “Example 3”, “was” for “was concentrated and then”, “solution (14.8” for “solution (18.5”, “kBq (4” for “kBq (0.5”, “and thigh bone)” for “and thyroid gland)”

Compound: O=C1CCc2cc(-c3cncc(I)c3)cc3c2N1CCC3 [PAY15, 9-(5-iodopyridin-3-yl)-1,2,6,7-tetrahydro-5H-pyrido[3,2,1-ij]quinolin-3-one]
- pIC50 (human CYP11B1): 6.85
- Selectivity factor (CYP11B2; IC50 against cortisol production/IC50 against aldosterone production, selectivity factor for CYP11B2): 223.95
- pIC50 (CYP11B2; V79-B2 cells, corticosterone 100 nmol/L, 4 hours, unlabeled form, read-out: IC50 against aldosterone production): 9.20
- selectivity factor compared with IMTO (CYP11B2; selectivity factor for CYP11B2, Table 6): higher than that of IMTO

Compound: O=C1CCc2cc(-c3cncc([125I])c3)cc3c2N1CCC3 [[^125I]PAY15, 9-(5-[^125I]iodopyridin-3-yl)-1,2,6,7-tetrahydro-5H-pyrido[3,2,1-ij]quinolin-3-one]
- radioactivity accumulation in the adrenal gland compared with blood and periadrenal tissues ([1]; at an early stage after administration): high radioactivity accumulation
- Adrenal gland/Blood ratio ([1]; 5 min): 1.74 ± 0.12
- Adrenal gland/Kidney ratio ([1]; 5 min): 1.42 ± 0.03
- Adrenal gland/Liver ratio ([1]; 5 min): 1.70 ± 0.23
- Radioactivity Distribution, Adrenal gland ([1]; 5 min): 8.7 ± 1.7 % dose/g
- Radioactivity Distribution, Blood ([1]; 5 min): 5.0 ± 1.2 % dose/g
- Radioactivity Distribution, Heart ([1]; 5 min): 3.6 ± 0.8 % dose/g
- Radioactivity Distribution, Kidney ([1]; 5 min): 6.1 ± 1.2 % dose/g
- Radioactivity Distribution, Large intestine ([1]; 5 min): 1.9 ± 0.8 % dose/g
- Radioactivity Distribution, Liver ([1]; 5 min): 5.1 ± 1.1 % dose/g
- Radioactivity Distribution, Lung ([1]; 5 min): 7.4 ± 1.6 % dose/g
- Radioactivity Distribution, Pancreas ([1]; 5 min): 4.0 ± 0.9 % dose/g
- Radioactivity Distribution, Small intestine ([1]; 5 min): 3.7 ± 0.9 % dose/g
- Radioactivity Distribution, Spleen ([1]; 5 min): 4.1 ± 0.8 % dose/g
- Radioactivity Distribution, Stomach ([1]; 5 min): 3.5 ± 1.2 % dose/g
- Radioactivity Distribution, Thyroid ([1]; 5 min): 71.6 ± 50.0 % dose/g
- Adrenal gland/Blood ratio ([1]; 15 min): 1.18 ± 0.15
- Adrenal gland/Kidney ratio ([1]; 15 min): 1.24 ± 0.17
- Adrenal gland/Liver ratio ([1]; 15 min): 1.81 ± 0.07
- Radioactivity Distribution, Adrenal gland ([1]; 15 min): 7.3 ± 3.9 % dose/g
- Radioactivity Distribution, Blood ([1]; 15 min): 4.9 ± 0.3 % dose/g
- Radioactivity Distribution, Heart ([1]; 15 min): 2.6 ± 0.5 % dose/g
- Radioactivity Distribution, Kidney ([1]; 15 min): 4.5 ± 0.4 % dose/g
- Radioactivity Distribution, Large intestine ([1]; 15 min): 1.8 ± 0.2 % dose/g
- Radioactivity Distribution, Liver ([1]; 15 min): 3.0 ± 0.3 % dose/g
- Radioactivity Distribution, Lung ([1]; 15 min): 4.9 ± 0.3 % dose/g
- Radioactivity Distribution, Pancreas ([1]; 15 min): 2.8 ± 0.1 % dose/g
- Radioactivity Distribution, Small intestine ([1]; 15 min): 4.6 ± 0.9 % dose/g
- Radioactivity Distribution, Spleen ([1]; 15 min): 3.2 ± 0.3 % dose/g
- Radioactivity Distribution, Stomach ([1]; 15 min): 12.1 ± 2.0 % dose/g
- Radioactivity Distribution, Thyroid ([1]; 15 min): 349.4 ± 115.9 % dose/g
- Adrenal gland/Blood ratio ([1]; 30 min): 0.74 ± 0.40
- Adrenal gland/Kidney ratio ([1]; 30 min): 0.75 ± 0.20
- Adrenal gland/Liver ratio ([1]; 30 min): 1.82 ± 0.53
- Radioactivity Distribution, Adrenal gland ([1]; 30 min): 2.3 ± 1.2 % dose/g
- Radioactivity Distribution, Blood ([1]; 30 min): 3.1 ± 0.3 % dose/g
- Radioactivity Distribution, Heart ([1]; 30 min): 1.3 ± 0.1 % dose/g
- Radioactivity Distribution, Kidney ([1]; 30 min): 3.5 ± 0.9 % dose/g
- Radioactivity Distribution, Large intestine ([1]; 30 min): 1.6 ± 0.2 % dose/g
- Radioactivity Distribution, Liver ([1]; 30 min): 1.5 ± 0.2 % dose/g
- Radioactivity Distribution, Lung ([1]; 30 min): 3.6 ± 1.6 % dose/g
- Radioactivity Distribution, Pancreas ([1]; 30 min): 1.7 ± 0.1 % dose/g
- Radioactivity Distribution, Small intestine ([1]; 30 min): 4.0 ± 0.4 % dose/g
- Radioactivity Distribution, Spleen ([1]; 30 min): 2.2 ± 0.3 % dose/g
- Radioactivity Distribution, Stomach ([1]; 30 min): 25.0 ± 6.4 % dose/g
- Radioactivity Distribution, Thyroid ([1]; 30 min): 486.5 ± 245.4 % dose/g
- Adrenal gland/Blood ratio ([1]; 60 min): 0.82 ± 0.16
- Adrenal gland/Kidney ratio ([1]; 60 min): 0.84 ± 0.21
- Adrenal gland/Liver ratio ([1]; 60 min): 1.90 ± 0.47
- Radioactivity Distribution, Adrenal gland ([1]; 60 min): 1.7 ± 1.3 % dose/g
- Radioactivity Distribution, Blood ([1]; 60 min): 2.9 ± 0.2 % dose/g
- Radioactivity Distribution, Heart ([1]; 60 min): 1.0 ± 0.0 % dose/g
- Radioactivity Distribution, Kidney ([1]; 60 min): 2.7 ± 0.6 % dose/g
- Radioactivity Distribution, Large intestine ([1]; 60 min): 1.7 ± 0.5 % dose/g
- Radioactivity Distribution, Liver ([1]; 60 min): 1.2 ± 0.1 % dose/g
- Radioactivity Distribution, Lung ([1]; 60 min): 2.4 ± 0.1 % dose/g
- Radioactivity Distribution, Pancreas ([1]; 60 min): 1.5 ± 0.1 % dose/g
- Radioactivity Distribution, Small intestine ([1]; 60 min): 4.0 ± 0.4 % dose/g
- Radioactivity Distribution, Spleen ([1]; 60 min): 1.6 ± 0.2 % dose/g
- Radioactivity Distribution, Stomach ([1]; 60 min): 31.3 ± 11.2 % dose/g
- Radioactivity Distribution, Thyroid ([1]; 60 min): 1298.8 ± 729.1 % dose/g
- Adrenal gland/Blood ratio ([1]; 120 min): 0.86 ± 0.46
- Adrenal gland/Kidney ratio ([1]; 120 min): 0.87 ± 0.42
- Adrenal gland/Liver ratio ([1]; 120 min): 0.73 ± 0.42
- Radioactivity Distribution, Adrenal gland ([1]; 120 min): 2.1 ± 1.4 % dose/g
- Radioactivity Distribution, Blood ([1]; 120 min): 2.3 ± 0.5 % dose/g
- Radioactivity Distribution, Heart ([1]; 120 min): 0.8 ± 0.2 % dose/g
- Radioactivity Distribution, Kidney ([1]; 120 min): 2.7 ± 1.6 % dose/g
- Radioactivity Distribution, Large intestine ([1]; 120 min): 2.4 ± 1.0 % dose/g
- Radioactivity Distribution, Liver ([1]; 120 min): 1.0 ± 0.2 % dose/g
- Radioactivity Distribution, Lung ([1]; 120 min): 2.0 ± 0.4 % dose/g
- Radioactivity Distribution, Pancreas ([1]; 120 min): 1.3 ± 0.3 % dose/g
- Radioactivity Distribution, Small intestine ([1]; 120 min): 3.0 ± 0.6 % dose/g
- Radioactivity Distribution, Stomach ([1]; 120 min): 27.4 ± 5.2 % dose/g
- Radioactivity Distribution, Thyroid ([1]; 120 min): 1400.6 ± 695.3 % dose/g
